Each molecule was assayed against HIV-1 protease (Human immunodeficiency virus, UniProt O90785) (assay: Protease Inhibtion Assay). Conditions: pH 5.5.
Description: Protease inhibition fluorescence-based assay using cyclic ureas to inhibit HIV-protease.

Chain of HIV-1 protease (O90785 whole entry): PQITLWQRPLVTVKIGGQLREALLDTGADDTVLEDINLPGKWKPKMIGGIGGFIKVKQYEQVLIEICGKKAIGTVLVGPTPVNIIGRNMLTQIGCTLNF

First: CNc1[nH]nc2ccc(CN3C(=O)N(Cc4ccc5n[nH]c(NC)c5c4)[C@H](Cc4ccccc4)[C@H](O)[C@@H](O)[C@H]3Cc3ccccc3)cc12 [3-alkylaminoindazole cyclic urea, (Me)]
Second: CCNc1[nH]nc2ccc(CN3C(=O)N(Cc4ccc5n[nH]c(NCC)c5c4)[C@H](Cc4ccccc4)[C@H](O)[C@@H](O)[C@H]3Cc3ccccc3)cc12 [3-alkylaminoindazole cyclic urea, (Et)]
The Ki of the first is 2.3-fold lower: 0.018 nM for the first, 0.041 nM for the second.

`Nc1n[nH]c2ccc(CN3C(=O)N(CC4CCC4)[C@H](Cc4ccccc4)[C@H](O)[C@@H](O)[C@H]3Cc3ccccc3)cc12` [Cyclobutylmethyl cyclic urea] and `Nc1n[nH]c2ccc(CN3C(=O)N(CC4CC4)[C@H](Cc4ccccc4)[C@H](O)[C@@H](O)[C@H]3Cc3ccccc3)cc12` [Cyclopropylmethyl cyclic urea] are within 1.5-fold of each other in Ki: 0.016 nM for the first, 0.02 nM for the second.

Compared with `Nc1n[nH]c2ccc(CN3C(=O)N(Cc4ccc5[nH]nc(N)c5c4)[C@H](Cc4ccccc4)[C@H](O)[C@@H](O)[C@H]3Cc3ccccc3)cc12` [3-alkylaminoindazole cyclic urea, (H)], `Nc1n[nH]c2ccc(CN3C(=O)N(Cc4ccccc4)[C@H](Cc4ccccc4)[C@H](O)[C@@H](O)[C@H]3Cc3ccccc3)cc12` [DMP850] is higher in Ki: < 0.01 nM for the first, 0.031 nM for the second.

Going from `Nc1cccc(CN2C(=O)N(Cc3cccc(N)c3)[C@H](Cc3ccccc3)[C@H](O)[C@@H](O)[C@H]2Cc2ccccc2)c1` to `Nc1n[nH]c2ccc(CN3C(=O)N(Cc4ccc5ccccc5c4)[C@H](Cc4ccccc4)[C@H](O)[C@@H](O)[C@H]3Cc3ccccc3)cc12` [2-Naphthylmethyl cyclic urea], the Ki falls from 0.3 nM to 0.023 nM (13-fold). The second binds more tightly here.

Compared with `O=C1N(Cc2ccc(CO)cc2)[C@H](Cc2ccccc2)[C@H](O)[C@@H](O)[C@@H](Cc2ccccc2)N1Cc1ccc(CO)cc1` [(4R,5S,6S,7R)-4,7-dibenzyl-5,6-dihydroxy-1,3-bis({[4-(hydroxymethyl)phenyl]methyl})-1,3-diazepan-2-one], `O=C1N(Cc2ccc3[nH]ncc3c2)[C@H](Cc2ccccc2)[C@H](O)[C@@H](O)[C@@H](Cc2ccccc2)N1Cc1ccc2[nH]ncc2c1` [(4R,5S,6S,7R)-4,7-dibenzyl-5,6-dihydroxy-1,3-bis(1H-indazol-5-ylmethyl)-1,3-diazepan-2-one] is 17-fold lower in Ki: 0.31 nM for the first, 0.018 nM for the second. The second binds more tightly here.

Compared with `CCCCN1C(=O)N(Cc2ccc3[nH]nc(N)c3c2)[C@H](Cc2ccccc2)[C@H](O)[C@@H](O)[C@H]1Cc1ccccc1` [(4R,5S,6S,7R)-1-(3-Amino-1H-indazol-5-ylmethyl)-4,7-dibenzyl-3-butyl-5,6-dihydroxy-[1,3]diazepan-2-one], `CCCCCN1C(=O)N(Cc2ccc3[nH]nc(N)c3c2)[C@H](Cc2ccccc2)[C@H](O)[C@@H](O)[C@H]1Cc1ccccc1` [n-Pentyl cyclic urea] is 2-fold higher in Ki: 0.021 nM for the first, 0.041 nM for the second.

First: CCCNc1[nH]nc2ccc(CN3C(=O)N(Cc4ccc5n[nH]c(NCCC)c5c4)[C@H](Cc4ccccc4)[C@H](O)[C@@H](O)[C@H]3Cc3ccccc3)cc12 [3-alkylaminoindazole cyclic urea, (n-Pr)]
Second: CC(C)Nc1[nH]nc2ccc(CN3C(=O)N(Cc4ccc5n[nH]c(NC(C)C)c5c4)[C@H](Cc4ccccc4)[C@H](O)[C@@H](O)[C@H]3Cc3ccccc3)cc12 [3-alkylaminoindazole cyclic urea, (i-Pr)]
The Ki of the first is 2.6-fold higher: 0.23 nM for the first, 0.09 nM for the second.

Compared with `Nc1n[nH]c2ccc(CN3C(=O)N(Cc4ccc5[nH]nc(N)c5c4)[C@H](Cc4ccccc4)[C@H](O)[C@@H](O)[C@H]3Cc3ccccc3)cc12` [3-Aminoindazole, 2], `CCCCCCN1C(=O)N(Cc2ccc3[nH]nc(N)c3c2)[C@H](Cc2ccccc2)[C@H](O)[C@@H](O)[C@H]1Cc1ccccc1` [n-Hexyl cyclic urea] is 13-fold higher in Ki: 0.01 nM for the first, 0.13 nM for the second.
